In patent US20130005721A1, “INDOLIZINE INHIBITORS OF 5-LIPOXYGENASE” (PANMIRA PHARMACEUTICALS, LLC, priority 2009, published 2013):

Each compound was assayed on human leukocytes (LTB4 production, calcium ionophore stimulated) (assay: Human Leukocyte LTB4 Inhibition Assay). Details: LTB4 by ELISA, read-out: LTB4 HLA IC50.
Assay type: cell-based
Description: Human Leukocyte LTB4 Inhibition Assay
A non-limiting example of a human leukocyte inhibition assay is as follows; Blood was drawn from consenting human volunteers into heparanized tubes and 3% dextran 0.9% saline ⅓ rd volume added. After sedimentation of red blood cells a hypotonic lysis of remaining red blood cells was performed and leukocytes sedimented at 1200 rpm. The pellet was resuspended at 1.25×10^5 cells/ml and aliquoted into wells containing 1 μL 100% DMSO (vehicle) or 2.5 μL drug in 100% DMSO. Samples were incubated for 5 minutes at 37° C. and 2 μL calcium ionophore […] (from a 50 mM DMSO stock diluted just prior to the assay in Hanks balanced salt solution (Invitrogen)) to 1.25 mM) was added, solutions mixed and incubated for 30 minutes at 37° C. Samples were centrifuged at 1,200 rpm (−200×g) for 10 minutes at 4° C., plasma removed and a 1:4 dilution assayed for LTB4 concentration using ELISA (Assay Designs). Drug concentrations to achieve 50% inhibition (IC50's) of vehicle LTB4 were determined by nonlinear regression (Graphpad Prism) of % inhibition versus log drug concentration.

IC50 [nM] | SMILES
< 300 | CCC(O)(c1cn(Cc2ccn3c(-c4ccc(F)cc4)c(C#N)cc3c2)nn1)C(F)(F)F (stereo not shown) [Compound 1-22, 3-(4-Fluoro-phenyl)-7-[4-(1-hydroxy-1-trifluoromethyl-propyl)-[1,2,3]triazol-1-ylmethyl]-indolizine-2-carbonitrile]

Same assay, conditions: Leukocyte, LTB4 by ELISA, read-out: LTB4 HLA IC50

SMILES | IC50 [nM]
CCC(O)(c1nnc(NCc2ccn3c(-c4ccc(F)cc4)c(C#N)c(Br)c3c2)o1)C(F)(F)F (stereo not shown) [Compound 1-18, 1-Bromo-3-(4-fluoro-phenyl)-7-{[5-(1-hydroxy-1-trifluoromethyl-propyl)-[1,3,4]oxadiazol-2-ylamino]-methyl}-indolizine-2-carbonitrile] | < 300
CCOC(=O)c1cc2cc(Cn3cc(C(O)(CC)C(F)(F)F)nn3)ccn2c1-c1ccc(F)cc1 (stereo not shown) [Compound 1-4, 3-(4-Fluoro-phenyl)-7-[4-(1-hydroxy-1-trifluoromethyl-propyl)-[1,2,3]triazol-1-ylmethyl]-indolizine-2-carboxylic acid ethyl ester] | < 300
CCC(O)(c1nnc(NCc2ccn3c(-c4ccc(F)cc4)c(C(N)=O)cc3c2)o1)C(F)(F)F (stereo not shown) [Compound 1-19, 3-(4-Fluoro-phenyl)-7-{[5-(1-hydroxy-1-trifluoromethyl-propyl)-[1,3,4]oxadiazol-2-ylamino]-methyl}-indolizine-2-carboxylic acid amide] | < 300
CCC(O)(c1cn(Cc2ccn3c(-c4ccc(OC)nc4)c(C(N)=O)cc3c2)nn1)C(F)(F)F (stereo not shown) [Compound 1-35, 7-[4-(1-Hydroxy-1-trifluoromethyl-propyl)-[1,2,3]triazol-1-ylmethyl]-3-(6-methoxy-pyridin-3-yl)-indolizine-2-carboxylic acid amide] | 300 to 1000
CCC(O)(c1cn(Cc2ccn3c(-c4ccc(F)cc4)c(C(N)=O)nc3c2)nn1)C(F)(F)F (stereo not shown) [Compound 1-14, 3-(4-Fluoro-phenyl)-7-[4-(1-hydroxy-1-trifluoromethyl-propyl)-[1,2,3]triazol-1-ylmethyl]-imidazo[1,2-a]pyridine-2-carboxylic acid amide] | 300 to 1000
CCC(O)(c1cn(Cc2ccn3c(-c4ccc(Cl)cc4)c(C(N)=O)cc3c2)nn1)C(F)(F)F (stereo not shown) [Compound 1-28, 3-(4-Chloro-phenyl)-7-[4-(1-hydroxy-1-trifluoromethyl-propyl)-[1,2,3]triazol-1-ylmethyl]-indolizine-2-carboxylic acid amide] | < 300
CCC(O)(c1cn(Cc2ccn3c(-c4ccc(F)cc4)c(COC)cc3c2)nn1)C(F)(F)F (stereo not shown) [Compound 1-44, 1,1,1-Trifluoro-2-{1-[3-(4-fluoro-phenyl)-2-methoxymethyl-indolizin-7-ylmethyl]-1H-[1,2,3]triazol-4-yl}-butan-2-ol] | < 300
CCC(O)(c1cn(Cc2ccn3c(-c4ccc(F)cc4)c(C(=O)O)cc3c2)nn1)C(F)(F)F (stereo not shown) [Compound 1-5, 3-(4-Fluoro-phenyl)-7-[4-(1-hydroxy-1-trifluoromethyl-propyl)-[1,2,3]triazol-1-ylmethyl]-indolizine-2-carboxylic acid] | 300 to 1000
CCOC(=O)c1cc2cc(Cn3cc(C(O)(CC)C(F)(F)F)nn3)ccn2c1-c1cccc(F)c1 (stereo not shown) [Compound 1-46, 3-(3-Fluoro-phenyl)-7-[4-(1-hydroxy-1-trifluoromethyl-propyl)-[1,2,3]triazol-1-ylmethyl]-indolizine-2-carboxylic acid ethyl ester] | < 300
CCC(O)(c1cn(Cc2ccn3c(-c4ccc(F)cc4)c(/C=C/C(N)=O)cc3c2)nn1)C(F)(F)F (stereo not shown) [Compound 1-43, (E)-3-{3-(4-Fluoro-phenyl)-7-[4-(1-hydroxy-1-trifluoromethyl-propyl)-[1,2,3]triazol-1-ylmethyl]-indolizin-2-yl}-acrylamide] | < 300
CCOC(=O)c1cc2cc(Cn3cc(C(O)(CC)C(F)(F)F)nn3)ccn2c1-c1ccc(OC)nc1 (stereo not shown) [Compound 1-36, 7-[4-(1-Hydroxy-1-trifluoromethyl-propyl)-[1,2,3]triazol-1-ylmethyl]-3-(6-methoxy-pyridin-3-yl)-indolizine-2-carboxylic acid ethyl ester] | < 300
CCOC(=O)c1cc2cc(Sc3ncc(C(O)(CC)C(F)(F)F)s3)ccn2c1 (stereo not shown) [Compound 1-1, 7-[5-(1-Hydroxy-1-trifluoromethyl-propyl)-thiazol-2-ylsulfanyl]-indolizine-2-carboxylic acid ethyl ester] | < 300
CCC(O)(c1cn(Cc2ccn3c(-c4ccc(F)nc4)c(C#N)cc3c2)nn1)C(F)(F)F (stereo not shown) [Compound 1-32, 3-(6-Fluoro-pyridin-3-yl)-7-[4-(1-hydroxy-1-trifluoromethyl-propyl)-[1,2,3]triazol-1-ylmethyl]-indolizine-2-carbonitrile] | < 300
CCC(O)(c1nnc(NCc2ccn3c(-c4ccc(F)cc4)c(C(N)=O)cc3c2)o1)C(F)(F)F (single isomer, unassigned) [Compound 1-20, 3-(4-Fluoro-phenyl)-7-{[5-(1-hydroxy-1-trifluoromethyl-propyl)-[1,3,4]oxadiazol-2-ylamino]-methyl}-indolizine-2-carboxylic acid amide] | < 300
CCC(O)(c1cn(Cc2ccn3c(-c4ccc(F)cc4)c(-c4nn[nH]n4)cc3c2)nn1)C(F)(F)F (stereo not shown) [Compound 1-23, 1,1,1-Trifluoro-2-{1-[3-(4-fluoro-phenyl)-2-(2H-tetrazol-5-yl)-indolizin-7-ylmethyl]-1H-[1,2,3]triazol-4-yl}-butan-2-ol] | > 1000
CCOC(=O)c1c(Br)c2cc(CNc3nnc(C(O)(CC)C(F)(F)F)o3)ccn2c1-c1ccc(F)cc1 (stereo not shown) [Compound 1-15, 1-Bromo-3-(4-fluoro-phenyl)-7-{[5-(1-hydroxy-1-trifluoromethyl-propyl)-[1,3,4]oxadiazol-2-ylamino]-methyl}-indolizine-2-carboxylic acid ethyl ester] | < 300
CCC(O)(c1cn(Cc2ccn3c(-c4ccc(F)nc4)c(C(N)=O)cc3c2)nn1)C(F)(F)F (stereo not shown) [Compound 1-31, 3-(6-Fluoro-pyridin-3-yl)-7-[4-(1-hydroxy-1-trifluoromethyl-propyl)-[1,2,3]triazol-1-ylmethyl]-indolizine-2-carboxylic acid amide] | > 1000

Results, then the compound that gave them:

IC50 [nM] | SMILES
> 1000 | CCNCc1cc2cc(Cn3cc(C(O)(CC)C(F)(F)F)nn3)ccn2c1-c1ccc(F)cc1 (stereo not shown) [Compound 1-60, 2-{1-[2-Ethylaminomethyl-3-(4-fluoro-phenyl)-indolizin-7-ylmethyl]-1H-[1,2,3]triazol-4-yl}-1,1,1-trifluoro-butan-2-ol]
< 300 | CCOC(=O)c1cc2cc(Cn3cc(C(O)(CC)C(F)(F)F)nn3)ccn2c1-c1cnc2ccccc2c1 (stereo not shown) [Compound 1-52, 7-[4-(1-Hydroxy-1-trifluoromethyl-propyl) [1,2,3]triazol-1-ylmethyl]-3-quinolin-3-yl-indolizine-2-carboxylic acid ethyl ester]
< 300 | CCC(O)(c1cn(Cc2ccn3c(-c4ccc(F)cc4)c(C(C)=O)cc3c2)nn1)C(F)(F)F (stereo not shown) [Compound 1-54, 1-{3-(4-Fluoro-phenyl)-7-[4-(1-hydroxy-1-trifluoromethyl-propyl)-[1,2,3]triazol-1-ylmethyl]-indolizin-2-yl}-ethanone]
< 300 | CCOC(=O)c1cc2cc(Cn3cc(C(O)(CC)C(F)(F)F)nn3)ccn2c1Cl (single isomer, unassigned) [Compound 1-87, 3-Chloro-7-[4-(1-hydroxy-1-trifluoromethyl-propyl)-[1,2,3]triazol-1-ylmethyl]-indolizine-2-carboxylic acid ethyl ester]
> 1000 | CCC(O)(c1cn(Cc2ccn3c(C(C)=O)c(C(N)=O)cc3c2)nn1)C(F)(F)F (stereo not shown) [Compound 1-67, 3-Acetyl-7-[4-(1-hydroxy-1-trifluoromethyl-propyl)-[1,2,3]triazol-1-ylmethyl]-indolizine-2-carboxylic acid amide]
< 300 | CCC(O)(c1cn(Cc2ccn3c(-c4ccnc(C)c4)c(C#N)cc3c2)nn1)C(F)(F)F (stereo not shown) [Compound 1-65, 7-[4-(1-Hydroxy-1-trifluoromethyl-propyl)-[1,2,3]triazol-1-ylmethyl]-3-(2-methyl-pyridin-4-yl)-indolizine-2-carbonitrile]
> 1000 | CCOc1ccc(-c2c(C(N)=O)cc3cc(Cn4cc(C(O)(CC)C(F)(F)F)nn4)ccn23)cn1 (stereo not shown) [Compound 1-58, 3-(6-Ethoxy-pyridin-3-yl)-7-[4-(1-hydroxy-1-trifluoromethyl-propyl)-[1,2,3]triazol-1-ylmethyl]-indolizine-2-carboxylic acid amide]
< 300 | CCC(O)(c1cn(Cc2ccn3c(C(C)C)c(C#N)cc3c2)nn1)C(F)(F)F (single isomer, unassigned) [Compound 1-81, 7-[4-(1-Hydroxy-1-trifluoromethyl-propyl)-[1,2,3]triazol-1-ylmethyl]-3-isopropyl-indolizine-2-carbonitrile]
> 1000 | CCC(O)(c1cn(Cc2ccn3c(Cl)c(C(N)=O)cc3c2)nn1)C(F)(F)F (single isomer, unassigned) [Compound 1-89, 3-Chloro-7-[4-(1-hydroxy-1-trifluoromethyl-propyl)-[1,2,3]triazol-1-ylmethyl]-indolizine-2-carboxylic acid amide]
> 1000 | CCC(O)(c1cn(Cc2ccn3c(-c4ccnc(C)c4)c(C(N)=O)cc3c2)nn1)C(F)(F)F (stereo not shown) [Compound 1-64, 7-[4-(1-Hydroxy-1-trifluoromethyl-propyl)-[1,2,3]triazol-1-ylmethyl]-3-(2-methyl-pyridin-4-yl)-indolizine-2-carboxylic acid amide]
